Key:
[1] = test system: Mycobacterium tuberculli induced inflammatory arthritis in rats (injected paw); assay: Adjuvant-induced developing inflammatory arthritis (prophylactic), injected paw oedema; assay type: in vivo, Wistar rats; conditions: 100 mg/kg oral once daily, day 14, injected paw
Method: Wistar rats, 12-14 weeks old, 140-160 g body weight in groups of 6 were employed in the study. All the animals were maintained in plastic cages at 22±2° C. with 12 h light/dark cycle and free access to pellet food and water. Test materials were administered orally once a day for the duration of the experiment. In all the experiments, a control group was maintained (vehicle administered) whilst the other group received a standard drug acetylsalicylic acid (ASA) administered once daily for comparison and authenticity/credibility of the test. The entire study was carried out after approval from Institutional Animal Ethics Committee and all the animals used in experimental work received humane care. The mean and standard error (S.E.) of the mean for each group was calculated and the results were expressed as percent inhibition compared to control group. The significance was determined statistically by applying Student's t-test.
Adjuvant arthritis was induced by the sub-plantar injection of 0.05 ml freshly prepared suspension (5.0 mg/ml) of steam killed Mycobacterium tuberculosis in liquid paraffin [Newbould BB. Chemotherapy of arthritis induced in rats by mycobacterial adjuvant. Br J Pharmacol 1963; 21:127-36]. The volume of the injected paws was quantitated before and on day 14th after the adjuvant injection and was measured by a volume differential meter model LE 7500N, Panlab, Spain.

[2] = test system: intracellular TNF-α in murine neutrophils; assay: Intracellular in vitro TNF-α estimation in LPS-stimulated murine neutrophils (flow cytometry); assay type: cell-based; conditions: 100 μg/ml, 3 h
Method: Cells were stimulated with LPS and incubated with test materials at graded concentrations (μg/ml) for 3 hours, in a CO2 incubator. The permeabilising solution was added to the cells and then these were incubated for 10 min. The cells were then labeled with conjugated anti-mouse TNF-α monoclonal antibody and further incubation of 30 min. duration was carried out in dark. After washing with Phosphate buffered saline, the samples were acquired directly on BD-Cantoll Flowcytometer (Beckton-Dickinson Biosciences, CA, USA). A fluorescence trigger was set on the FL1 parameter of the gated neutrophils populations (10,000 events) and fluorescence compensation, data analysis and data presentation was performed using Cell Quest Pro software. [Clara, B., R. C. Arancha, G. M. Andre's, P. Atanasio, A. Julia, and O. Alberto. 2003. A new method for detecting TNF-α-secreting cells using direct immunofluorescence surface membrane stainings. J. Immuno. Methods 264:77-87.][Khurshid A. Bhat, Bhahwal A. Shah, Kuldeep K. Gupta, Anjali Pandey, Sarang Bani, Subhash C. Taneja. Semi-synthetic analogs of pinitol as potential inhibitors of TNF-a cytokine expression in human neutrophils. Bioorganic & Medicinal Chemistry Letters 19 2009, 1939-1943].

SMILES	Oedema Mean ± S.E. [1]	inhibition at 100 mg/kg ([1]; Mycobacterium, 336 h, read-out: Percentage Activity Against Arthritic Control (↓ percent inhibition))	% TNF-alpha expression against LPS control (↓ decrease) [2]	intracellular TNF-α expression Mean ± S.E ([2]; n=3)
CC(=O)Oc1ccccc1C(=O)O [ASA, Acetylsalicylic acid]	1.82 ± 0.17 mm	37%	–	–
COc1ccc(C2CNC(=O)C2)cc1OC1CCCC1 (stereo not shown) [Rolipram]	–	–	71.48↓ %	0.71 ± 0.04

Source: patent publication US20110218172A1, “COMPOSITION FOR DOWN-REGULATING PRO-INFLAMMATORY MARKERS” (priority 2010, published 2011)
